Results published in patent US20260001889A1, “COMPOSITIONS USEFUL FOR MODULATING SPLICING” (Skyhawk Therapeutics, Inc., priority 2022, published 2026).

What was measured:
[1] = tested on: ATXN3 transcripts containing exon 4; test: ATXN3 Quantitative Splicing Assay (qPCR, E4E5 primers/probe); type: cell-based; details: Homo sapiens, SK-N-MC cells, compounds for 24 h
Method: Example 34: ATXN3 Quantitative Splicing Assay
Human neuroblastoma SK-N-MC cells were plated in 384-well plates at 20,000 cells/well. Twenty-four hours after plating, cells were treated with compounds for 24 h at appropriate concentrations ranging from 30 μM to 0.6 nM (0.300 DMSO). Treated cells were lysed in 15 μL of lysis buffer, and cDNA was synthesized using the Fast Advanced Cells-to-Ct kit. Two […] of each cDNA was used in qPCR reactions to confirm the exon 4 skipped transcripts of ATXN3. A second set of primers/probe E4E5 was used to detect the transcripts containing exon 4. The third set of primers/probe E8E9 was used to detect total gene level of ATXN3. The qPCR reactions were prepared in 384-well plates in 10 μL volume, using TaqMan™ Fast Advanced Master Mix with primers and probes shown in the table below. Reactions were run in a Quant Studio 6 qPCR instrument with default settings.
The primers and probes are listed below in Table 4.

total ATXN3 protein = test: ATXN3 Total Protein Assay (Mesoscale Discovery, SK-N-MC cells); type: cell-based, Human; details: incubation for 48 hours, MSD assay
Method: Example 35: ATXN3 Total Protein Assay
Human neuroblastoma SK-N-MC cells were seeded at 10,000 cells/well in 384 well plates one day prior to compound treatment. The concentrations of compounds were tested at appropriate doses ranging from 30 μM to 0.6 nM. After incubation for 48 hours, the cells were lysed with 25 μL of lysis buffer containing protease inhibitors, and total ATXN3 protein levels were assessed by Mesoscale Discovery (MSD) assay developed with one pair of anti-ATXN3 antibodies. The capture and detect antibodies were raised in mouse and rabbit respectively. Anti-rabbit MSD-ST antibody was used for secondary antibody.
ATXN3 recombinant protein was used for standards. The readouts were captured with 35 μL of MSD read buffer and multi-array 384-well high binding plates.

ATXN3-HiBiT protein = test: ATXN3 Total Protein Assay (Kelly-ATXN3-HiBiT luminescence); type: cell-based; details: Kelly-ATXN3-HiBiT cells, 48 h after addition of compound
Summary of the method: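 Endogenous ATXN3-HiBiT protein in knock-in Kelly neuroblastoma cells measured by lytic HiBiT luminescence 48 h post-compound (added 24 h after seeding 2000 cells/well). Values are fold changes relative to DMSO, with viability from a parallel CellTiter-Glo plate.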

IC50 [1] [nM] | IC50 (total ATXN3 protein) [nM] | EC50 (ATXN3-HiBiT protein) [nM] | SMILES
101 to 500 | 101 to 500 | 501 to 5000 | N[C@H](Cc1oc2c(NCc3cccs3)cc(Cl)nc2c1Br)[C@H]1CCOC1 (single isomer, unassigned) [Compound 99]
501 to 5000 | 5000 to 10000 | 10000 to 40000 | N[C@H](Cc1oc2c(NCc3cccs3)cc(Cl)nc2c1Br)[C@@H]1CCOC1 (single isomer, unassigned) [Compound 100]
501 to 5000 | 501 to 5000 | 501 to 5000 | N[C@@H](Cc1oc2c(NCc3cccs3)cc(Cl)nc2c1Br)[C@@H]1CCOC1 (single isomer, unassigned) [Compound 214]
10000 to 40000 | 10000 to 40000 | 10000 to 40000 | N[C@@H](Cc1oc2c(NCc3cccs3)cc(Cl)nc2c1Br)[C@H]1CCOC1 (single isomer, unassigned) [Compound 215]
10000 to 40000 | 10000 to 40000 |  | Cc1coc2c(NCc3ccncc3)cc(Cl)nc12 [Compound 5, [(4-pyridyl)methyl](5-chloro-3-methyl-1-oxa-4-aza-7-indenyl)amine]
10000 to 40000 | 10000 to 40000 |  | Clc1cc(NCc2ccncc2)c2occc2n1 [Compound 6, 5-chloro-N-(pyridin-4-ylmethyl)furo[3,2-b]pyridin-7-amine]
101 to 500 | 101 to 500 | 101 to 500 | CC[C@H](N)Cc1oc2c(NCc3cccs3)cc(Cl)nc2c1C [Compound 13, 2-[(S)-2-aminobutyl]-5-chloro-3-methyl-7-thenylamino-1-oxa-4-azaindene]
101 to 500 | 101 to 500 |  | N[C@H](Cc1oc2c(NCc3cccs3)cc(Cl)nc2c1Br)CC(F)(F)F [Compound 24, 2-[(R)-2-amino-4,4,4-trifluorobutyl]-3-bromo-5-chloro-7-thenylamino-1-oxa-4-azaindene]
101 to 500 | 101 to 500 |  | N[C@H](Cc1oc2c(NCc3cccs3)cc(Cl)nc2c1Cl)CC1CC1 [Compound 28, 2-[(S)-2-amino-3-cyclopropylpropyl]-3,5-dichloro-7-thenylamino-1-oxa-4-azaindene]
101 to 500 | 101 to 500 |  | N[C@H](Cc1oc2c(NCc3ccco3)cc(Cl)nc2c1Cl)CC1CC1 [Compound 29, 2-[(S)-2-amino-3-cyclopropylpropyl]-3,5-dichloro-7-(furfurylamino)-1-oxa-4-azaindene]
501 to 5000 | 501 to 5000 |  | Cc1c(C[C@@H](N)CC(F)(F)F)oc2c(NCc3cccs3)cc(Cl)nc12 [Compound 30, 2-[(R)-2-amino-4,4,4-trifluorobutyl]-5-chloro-3-methyl-7-thenylamino-1-oxa-4-azaindene]
501 to 5000 | 501 to 5000 |  | Clc1cc(NCc2cccs2)c2occ(C3CC3)c2n1 [Compound 32, (thenyl)(5-chloro-3-cyclopropyl-1-oxa-4-aza-7-indenyl)amine]
101 to 500 | 0.01 to 100 |  | COC[C@H](N)Cc1oc2c(NCc3ccco3)cc(Cl)nc2c1Br [Compound 38, 2-[(R)-2-amino-3-methoxypropyl]-3-bromo-5-chloro-7-(furfurylamino)-1-oxa-4-azaindene]
0.01 to 100 | 0.01 to 100 |  | N[C@@H](CF)Cc1oc2c(NCc3ccco3)cc(Cl)nc2c1Br [Compound 39, 2-[(R)-2-amino-3-fluoropropyl]-3-bromo-5-chloro-7-(furfurylamino)-1-oxa-4-azaindene]
501 to 5000 | 501 to 5000 |  | Cc1c(C[C@@H](N)[C@@H](C)F)oc2c(NCc3cccs3)cc(Cl)nc12 [Compound 42, 2-[(2R,3R)-2-amino-3-fluorobutyl]-5-chloro-3-methyl-7-thenylamino-1-oxa-4-azaindene]
101 to 500 | 101 to 500 |  | COC[C@H](N)Cc1oc2c(NCc3ccccc3)cc(Cl)nc2c1Br [Compound 47, 2-[(R)-2-amino-3-methoxypropyl]-7-benzylamino-3-bromo-5-chloro-1-oxa-4-azaindene]
101 to 500 | 101 to 500 |  | COC[C@H](N)Cc1oc2c(NCc3nccs3)cc(Cl)nc2c1Br [Compound 49, 2-[(R)-2-amino-3-methoxypropyl]-3-bromo-5-chloro-7-{[(1,3-thiazol-2-yl)methyl]amino}-1-oxa-4-azaindene]
0.01 to 100 | 0.01 to 100 |  | N[C@H](Cc1oc2c(NCc3cccs3)cc(Cl)nc2c1Br)CC1CC1 [Compound 55, 2-[(S)-2-amino-3-cyclopropylpropyl]-3-bromo-5-chloro-7-thenylamino-1-oxa-4-azaindene]
0.01 to 100 | 0.01 to 100 |  | N[C@H](Cc1oc2c(NCc3ccco3)cc(Cl)nc2c1Br)CC1CC1 [Compound 56, 2-[(S)-2-amino-3-cyclopropylpropyl]-3-bromo-5-chloro-7-(furfurylamino)-1-oxa-4-azaindene]
5000 to 10000 |  | 5000 to 10000 | OCc1oc2c(NCc3cccs3)cc(Cl)nc2c1Br [Compound 354, (3-bromo-5-chloro-7-thenylamino-1-oxa-4-aza-2-indenyl)methanol]

SMILES | IC50 [1] [nM] | IC50 (total ATXN3 protein) [nM] | EC50 (ATXN3-HiBiT protein) [nM]
Cc1c(C[C@H](C)N)oc2c(NCc3ccncc3)cc(Cl)nc12 (single isomer, unassigned) [Compound 3] | 501 to 5000 | 501 to 5000 | 
Cc1c(C[C@@H](C)N)oc2c(NCc3ccncc3)cc(Cl)nc12 (single isomer, unassigned) [Compound 4] | 5000 to 10000 | 501 to 5000 | 
CC(N)Cc1cc2nc(Cl)cc(NCc3ccncc3)c2o1 (stereo not shown) [Compound 1, 2-(2-aminopropyl)-5-chloro-7-{[(4-pyridyl)methyl]amino}-1-oxa-4-azaindene] | 10000 to 40000 | 10000 to 40000 | 
CC(N)Cc1cc2nc(Cl)cc(NCc3ccccc3)c2o1 (stereo not shown) [Compound 2, 2-(2-aminopropyl)-7-benzylamino-5-chloro-1-oxa-4-azaindene] | 5000 to 10000 | 5000 to 10000 | 
Cc1c(CC(C)N)oc2c(NCc3ccncc3)cc(Cl)nc12 (stereo not shown) [Compound 7, 2-(2-aminopropyl)-5-chloro-3-methyl-7-{[(4-pyridyl)methyl]amino}-1-oxa-4-azaindene] | 501 to 5000 | 501 to 5000 | 
Cc1c(C[C@H](C)N)oc2c(NCc3ccccc3)cc(Cl)nc12 [Compound 8, 2-[(S)-2-aminopropyl]-7-benzylamino-5-chloro-3-methyl-1-oxa-4-azaindene] | 501 to 5000 | 501 to 5000 | 
Cc1c(C[C@H](C)N)oc2c(NCc3nccs3)cc(Cl)nc12 [Compound 9, 2-[(S)-2-aminopropyl]-5-chloro-3-methyl-7-{[(1,3-thiazol-2-yl)methyl]amino}-1-oxa-4-azaindene] | 501 to 5000 | 501 to 5000 | 
Cc1c(C[C@H](C)N)oc2c(NCc3ccco3)cc(Cl)nc12 [Compound 10, 2-[(S)-2-aminopropyl]-5-chloro-7-(furfurylamino)-3-methyl-1-oxa-4-azaindene] | 501 to 5000 | 501 to 5000 | 
Cc1c(C[C@H](C)N)oc2c(NCc3cccs3)cc(Cl)nc12 [Compound 11, 2-[(S)-2-aminopropyl]-5-chloro-3-methyl-7-thenylamino-1-oxa-4-azaindene] | 101 to 500 | 101 to 500 | 0.01 to 100
Cc1c(C[C@H](C)N)oc2c(NCc3ccc(F)s3)cc(Cl)nc12 [Compound 12, 2-[(S)-2-aminopropyl]-5-chloro-7-{[(5-fluoro-2-thienyl)methyl]amino}-3-methyl-1-oxa-4-azaindene] | 501 to 5000 | 501 to 5000 | 
Cc1c(C[C@H](C)N)oc2c(NCc3cccs3)cc(C#N)nc12 [Compound 15, 2-[(2S)-2-aminopropyl]-3-methyl-7-[(thiophen-2-ylmethyl)amino]furo[3,2-b]pyridine-5-carbonitrile] | 501 to 5000 | 501 to 5000 | 
C[C@H](N)Cc1oc2c(NCc3cccs3)cc(Cl)nc2c1C1CC1 [Compound 19, 2-[(2S)-2-aminopropyl]-5-chloro-3-cyclopropyl-N-(thiophen-2-ylmethyl)furo[3,2-b]pyridin-7-amine] | 101 to 500 | 101 to 500 | 
C[C@H](N)Cc1oc2c(NCc3ccco3)cc(Cl)nc2c1Cl [Compound 54, 2-[(S)-2-aminopropyl]-3,5-dichloro-7-(furfurylamino)-1-oxa-4-azaindene] | 101 to 500 | 0.01 to 100 | 
C[C@H](N)Cc1oc2c(NCc3ccc(F)cc3F)cc(Cl)nc2c1Br [Compound 350, 2-[(S)-2-aminopropyl]-3-bromo-5-chloro-7-{[(2,4-difluorophenyl)methyl]amino}-1-oxa-4-azaindene] | 501 to 5000 |  | 501 to 5000
C[C@H](N)Cc1oc2c(NCc3ccc(Cl)s3)cc(Cl)nc2c1Br [Compound 353, 2-[(S)-2-aminopropyl]-3-bromo-5-chloro-7-{[(5-chloro-2-thienyl)methyl]amino}-1-oxa-4-azaindene] | 501 to 5000 |  | 501 to 5000
